Results: patent publication US7135466B2 (Kirin Beer Kabushiki Kaisha, priority 1999, dated 2006)
Read-outs that look alike come from different tables or passages of the source. Values belong to the compound of their own block, whether it stands above or below them.

Tests used:
[1] = target: T1, PDGF-Ra (Homo sapiens, UniProt P16234); assay: Inhibitory activity against PDGF-Ra phosphorylation by PDGF-AA stimulation using G292; assay type: cell-based; conditions: for IC50: > means inhibition at indicated concentration not more than 50%, < and << not less than 50%, read-out: PDGF (E) IC50; for inhibition at 0.1 µM: G292, figure within parentheses in >100( ), at 100 nM, read-out: PDGF (E) inhibition (%) at 100 nM
T1 construct: host or cells: G-292 human osteosarcoma cells
T1 sequence (P16234 24-1089): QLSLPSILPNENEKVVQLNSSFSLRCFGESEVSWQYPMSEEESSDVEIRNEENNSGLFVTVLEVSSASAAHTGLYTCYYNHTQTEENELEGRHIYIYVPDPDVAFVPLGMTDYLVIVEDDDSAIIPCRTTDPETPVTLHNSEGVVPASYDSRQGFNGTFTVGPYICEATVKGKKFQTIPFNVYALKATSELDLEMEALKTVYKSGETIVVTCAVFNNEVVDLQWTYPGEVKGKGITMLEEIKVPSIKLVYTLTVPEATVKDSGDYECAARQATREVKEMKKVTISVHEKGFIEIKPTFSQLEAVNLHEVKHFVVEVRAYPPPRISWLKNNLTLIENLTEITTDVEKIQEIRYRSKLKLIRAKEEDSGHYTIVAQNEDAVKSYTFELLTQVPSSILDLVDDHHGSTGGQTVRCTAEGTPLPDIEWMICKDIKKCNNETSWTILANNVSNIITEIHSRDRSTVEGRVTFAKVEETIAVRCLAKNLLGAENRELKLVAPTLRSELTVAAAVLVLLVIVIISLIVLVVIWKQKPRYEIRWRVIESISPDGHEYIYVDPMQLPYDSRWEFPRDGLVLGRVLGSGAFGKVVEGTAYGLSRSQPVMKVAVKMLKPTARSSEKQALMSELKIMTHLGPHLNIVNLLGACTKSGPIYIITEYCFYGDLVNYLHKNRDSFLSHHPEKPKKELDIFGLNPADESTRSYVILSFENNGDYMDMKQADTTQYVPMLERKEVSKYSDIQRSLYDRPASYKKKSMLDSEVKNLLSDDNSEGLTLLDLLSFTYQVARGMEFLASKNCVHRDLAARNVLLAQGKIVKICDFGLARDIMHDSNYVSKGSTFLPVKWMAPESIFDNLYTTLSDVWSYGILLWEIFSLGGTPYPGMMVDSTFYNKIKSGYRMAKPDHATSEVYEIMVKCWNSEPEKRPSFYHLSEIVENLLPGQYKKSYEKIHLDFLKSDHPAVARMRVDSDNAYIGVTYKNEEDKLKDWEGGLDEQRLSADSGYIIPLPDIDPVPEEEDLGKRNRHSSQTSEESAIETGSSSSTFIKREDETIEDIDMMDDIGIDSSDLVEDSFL
Method in brief: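 Phosphorylated PDGF-Ra was measured colorimetrically (450 nm) after tyrosine-phosphorylated proteins from G-292 lysates were bound to PY-20-coated wells and detected with anti-PDGF-Ra antibody. Compound preincubation lasted 1 hr, followed by 50 ng/ml PDGF-AA for 5 min.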

[2] = target: T2, c-kit (Homo sapiens, UniProt P10721); assay: Inhibitory activity against c-kit autophosphorylation (MO7e cells, h-SCF); assay type: cell-based; conditions: for IC50: MO7e cells, read-out: c-kit IC50; for inhibition at 1 µM: Mo7e, at 1000 nM
T2 construct: MO7e (human megakaryocytic leukemia cell line) which had been arrested for 20 hr; endogenous in cells; host or cells: MO7e human megakaryocytic leukemia cell line
T2 sequence (P10721 26-976): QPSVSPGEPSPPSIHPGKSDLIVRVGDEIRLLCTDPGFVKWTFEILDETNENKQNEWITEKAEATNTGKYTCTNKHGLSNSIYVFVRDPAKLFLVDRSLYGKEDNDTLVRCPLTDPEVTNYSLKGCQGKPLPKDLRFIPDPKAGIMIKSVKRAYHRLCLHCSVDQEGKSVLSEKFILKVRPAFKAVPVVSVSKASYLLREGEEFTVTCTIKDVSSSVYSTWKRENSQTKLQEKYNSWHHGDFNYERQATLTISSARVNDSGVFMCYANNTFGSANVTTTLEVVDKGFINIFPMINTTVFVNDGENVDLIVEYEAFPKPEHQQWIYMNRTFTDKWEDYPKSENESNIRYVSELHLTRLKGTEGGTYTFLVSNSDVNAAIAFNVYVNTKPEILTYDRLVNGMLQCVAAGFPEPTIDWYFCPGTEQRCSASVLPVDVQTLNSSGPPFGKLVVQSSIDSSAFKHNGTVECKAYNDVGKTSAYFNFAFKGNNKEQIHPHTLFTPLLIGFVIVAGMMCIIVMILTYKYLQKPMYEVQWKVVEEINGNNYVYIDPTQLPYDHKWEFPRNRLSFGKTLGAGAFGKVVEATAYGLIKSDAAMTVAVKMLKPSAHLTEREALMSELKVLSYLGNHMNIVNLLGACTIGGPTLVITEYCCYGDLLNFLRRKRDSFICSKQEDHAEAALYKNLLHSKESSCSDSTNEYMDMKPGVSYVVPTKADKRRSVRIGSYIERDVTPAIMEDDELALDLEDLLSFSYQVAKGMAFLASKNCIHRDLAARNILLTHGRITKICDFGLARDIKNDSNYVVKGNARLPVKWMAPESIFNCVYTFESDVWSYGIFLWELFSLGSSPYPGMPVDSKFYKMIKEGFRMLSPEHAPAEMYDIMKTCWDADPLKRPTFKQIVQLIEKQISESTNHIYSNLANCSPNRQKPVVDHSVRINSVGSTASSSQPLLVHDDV
Method in brief: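 In this cellular autophosphorylation assay, compound-treated MO7e cells (1 hr) were challenged with human stem cell factor at 50 ng/ml for 5 min; detection relied on PY-20 capture and anti-c-kit/HRP immunodetection at 450 nm.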

[3] = figure within parentheses in −( ) or >1000( )

Structure (SMILES): CCN(CCNC(=O)Nc1cc(C)c(Oc2ccnc3cc(OC)c(OC)cc23)cc1C)c1cccc(C)c1 [Example 662, N-{4-[(6,7-Dimethoxy-4-quinolyl)oxy]-2,5-dimethylphenyl}-N′-[2-(ethyl-3-methylanilino)ethyl]urea]
IC50 [1]: 23 nM
IC50 ([2]; 50 ng/ml h-SCF): 296 nM

Structure (SMILES): COc1cc2ncnc(Oc3ccc(NC(=O)OC4CCCCCC4)cc3)c2cc1OC [Example 342, Cycloheptyl N-{4-[(6,7-dimethoxy-4-quinazolinyl)oxy]phenyl}carbamate]
IC50 ([1]; Pharmacological Test Example 1): < 10 nM
IC50 ([2]; h-SCF 50 ng/ml): < 30 nM

Structure (SMILES): COc1cc2ncnc(Oc3ccc(NC(=S)NC(=O)Cc4ccc5ccccc5c4)cc3)c2cc1OC [Example 711, N-{4-[(6,7-Dimethoxy-4-quinazolinyl)oxy]phenyl}-N′-[2-(2-naphthyl)acetyl]thiourea]
IC50 [1]: > 100 nM
inhibition at 0.1 µM [1]: 34%
inhibition at 1 µM [2, 3]: 17%

Structure (SMILES): COc1cc2nccc(Oc3ccc(NC(=O)OCc4ccc(F)cc4)cc3)c2cc1OC [Example 8, 4-Fluorobenzyl N-{4-[(6,7-dimethoxy-4-quinolyl)oxy]phenyl}carbamate]
IC50 ([1]; Pharmacological Test Example 1): < 10 nM
IC50 ([2]; h-SCF 50 ng/ml): 62 nM

Structure (SMILES): COc1cc2nccc(Oc3ccc(NC(=O)OCCSc4cc(C)ccc4C)cc3)c2cc1OC [Example 165, 2-[(2,5-dimethylphenyl)sulfanyl]ethyl N-{4-[(6,7-dimethoxy-4-quinolyl)oxy]phenyl}carbamate]
IC50 ([1]; Pharmacological Test Example 1): 49 nM
IC50 ([2]; h-SCF 50 ng/ml): 149 nM

Structure (SMILES): COc1ccc(C(=O)NC(=S)Nc2ccc(Oc3ccnc4cc(OC)c(OC)cc34)c(Cl)c2)cc1OC [Example 1204, N-{3-Chloro-4-[(6,7-dimethoxy-4-quinolyl)oxy]phenyl}-N′-(3,4-dimethoxybenzoyl)thiourea]
IC50 [1]: 18 nM
IC50 ([2]; h-SCF stimulation): 434 nM

Structure (SMILES): COc1cc2ncnc(Oc3ccc(NC(=O)OCCCSc4ccc(Cl)cc4C)c(Cl)c3)c2cc1OC [Example 81, 3-[(4-Chloro-2-methylphenyl)sulfanyl]propyl N-{2-chloro-4-[(6,7-dimethoxy-4-quinazolinyl)oxy]phenyl}carbamate]
IC50 ([1]; Pharmacological Test Example 1): 12 nM
IC50 ([2]; h-SCF 50 ng/ml): 408 nM

Structure (SMILES): COc1cc2nccc(Oc3cc(C)c(NC(=O)OCCCN4CCN(C)CC4)cc3C)c2cc1OC [Example 425, 3-(4-Methylpiperazino)propyl N-{4-[(6,7-dimethoxy-4-quinolyl)oxy]-2,5-dimethylphenyl}carbamate]
IC50 [1]: > 100 nM
inhibition at 0.1 µM [1]: 5%
IC50 ([2]; 50 ng/ml h-SCF): 464 nM

Structure (SMILES): COc1cc2ncnc(Oc3ccc(NC(=O)N[C@@H]4CCN(Cc5ccccc5)C4)c([N+](=O)[O-])c3)c2cc1OC [Example 577, N-[(3R)-1-Benzyltetrahydro-1H-3-pyrrolyl]-N′-{4-[(6,7-dimethoxy-4-quinazolinyl)oxy]-2-nitrophenyl}urea]
IC50 [1]: 14 nM
IC50 ([2]; 50 ng/ml h-SCF): 328 nM

Structure (SMILES): COc1cc2ncnc(Oc3ccc(NC(=O)OC4CCCC4)c(C)c3C)c2cc1OC [Example 393, Cyclopentyl N-{4-[(6,7-dimethoxy-4-quinazolinyl)oxy]-2,3-dimethylphenyl}carbamate]
IC50 ([1]; Pharmacological Test Example 1): 82 nM
IC50 ([2]; h-SCF 50 ng/ml): 90 nM

Structure (SMILES): CCCCN(CCCC)CCCNC(=S)Nc1ccc(Oc2ccnc3cc(OC)c(OC)cc23)c(C)c1C [Example 547, N-{4-[(6,7-Dimethoxy-4-quinolyl)oxy]-2,3-dimethylphenyl}-N′-(3-dibutylaminopropyl)thiourea]
IC50 [1]: > 100 nM
inhibition at 0.1 µM [1]: 33%
inhibition at 1 µM [2, 3]: 41%

Structure (SMILES): COc1cc2ncnc(Oc3ccc(NC(=O)OC(C)c4cccc(C(F)(F)F)c4)c(Cl)c3)c2cc1OC (stereo not drawn) [Example 91, 1-[3-(Trifluoromethyl)phenyl]ethyl N-{2-chloro-4-[(6,7-dimethoxy-4-quinazolinyl)oxy]phenyl}carbamate]
IC50 ([1]; Pharmacological Test Example 1): 14 nM
inhibition at 1 µM ([2]; figure in parentheses in −( )): 20%

Structure (SMILES): CCN(CC)CCCOC(=O)Nc1ccc(Oc2ccnc3cc(OC)c(OC)cc23)cc1 [Example 426, 3-(Diethylamino)propyl N-{4-[(6,7-dimethoxy-4-quinolyl)oxy]phenyl}carbamate]
IC50 [1]: 22 nM
IC50 ([2]; 50 ng/ml h-SCF): 272 nM

Structure (SMILES): CCN(CCNC(=O)Nc1ccc(Oc2ncnc3cc(OC)c(OC)cc23)cc1[N+](=O)[O-])c1cccc(C)c1 [Example 667, N-{4-[(6,7-Dimethoxy-4-quinazolinyl)oxy]-2-nitrophenyl}-N′-[2-(ethyl-3-methylanilino)ethyl]urea]
IC50 [1]: < 10 nM
IC50 ([2]; 50 ng/ml h-SCF): 100 nM

Structure (SMILES): COc1cc2nccc(Oc3ccc(NC(=S)NC(=O)CCSC)cc3)c2cc1OC [Example 1135, N-{4-[(6,7-Dimethoxy-4-quinolyl)oxy]phenyl}-N′-[3-(methylsulphenyl)propanoyl]thiourea]
IC50 [1]: < 10 nM
IC50 ([2]; h-SCF stimulation): 239 nM

Structure (SMILES): COc1cc2ncnc(Oc3ccc(NC(=O)OCC4CCCC4)cc3)c2cc1OC [Example 397, Cyclopentylmethyl N-{4-[(6,7-dimethoxy-4-quinazolinyl)oxy]phenyl}carbamate]
IC50 ([1]; Pharmacological Test Example 1): < 10 nM
IC50 ([2]; h-SCF 50 ng/ml): 77 nM

Structure (SMILES): CCN(CC)CCNC(=O)Nc1ccc(Oc2ccnc3cc(OC)c(OC)cc23)c(Cl)c1 [Example 651, N-{3-Chloro-4-[(6,7-dimethoxy-4-quinolyl)oxy]phenyl}-N′-[2-(diethylamino)ethyl]urea]
IC50 [1]: 40 nM
IC50 ([2]; 50 ng/ml h-SCF): 808 nM

Structure (SMILES): COc1cc2nccc(Oc3ccc(NCCOc4ccc(C)cc4)cc3C)c2cc1OC [Example 879, N-{4-[(6,7-Dimethoxy-4-quinolyl)oxy]-3-methylphenyl}-N-[2-(4-methylphenoxy)ethyl]amine]
IC50 [1]: 20 nM
IC50 ([2]; h-SCF stimulation): 48 nM

Structure (SMILES): CCCOC(=O)Nc1cc(C)c(Oc2ccnc3cc(OC)c(OC)cc23)cc1C [Example 244, Propyl N-{4-[(6,7-dimethoxy-4-quinolyl)oxy]-2,5-dimethylphenyl}carbamate]
IC50 ([1]; Pharmacological Test Example 1): 27 nM
IC50 ([2]; h-SCF 50 ng/ml): 69 nM

Structure (SMILES): COc1ccc(OC)c(COC(=O)Nc2ccc(Oc3ncnc4cc(OC)c(OC)cc34)cc2Cl)c1 [Example 71, 2,5-Dimethoxybenzyl N-{2-chloro-4-[(6,7-dimethoxy-4-quinazolinyl)oxy]phenyl}carbamate]
IC50 ([1]; Pharmacological Test Example 1): 38 nM
inhibition at 1 µM ([2]; figure in parentheses in −( )): 34%

Structure (SMILES): COc1cc2nccc(Oc3ccc(NC(=O)NCCN4CCOCC4)c(C)c3C)c2cc1OC [Example 617, N-{4-[(6,7-Dimethoxy-4-quinolyl)oxy]-2,3-dimethylphenyl}-N′-(2-morpholinoethyl)urea]
IC50 [1]: < 10 nM
IC50 ([2]; 50 ng/ml h-SCF): 172 nM

Structure (SMILES): CCCCN(CCCC)C(C)CNC(=S)Nc1ccc(Oc2ncnc3cc(OC)c(OC)cc23)cc1 (stereo not drawn) [Example 532, N-{4-[(6,7-Dimethoxy-4-quinazolinyl)oxy]phenyl}-N′-(2-dibutylaminopropyl)thiourea]
IC50 [1]: > 100 nM
inhibition at 0.1 µM [1]: 44%
IC50 ([2]; 50 ng/ml h-SCF): 752 nM

Second part, the compound after the results:

IC50 ([1]; Pharmacological Test Example 1): 42 nM
IC50 ([2]; h-SCF 50 ng/ml): 486 nM
Structure (SMILES): CCC(OC(=O)Nc1cc(C)c(Oc2ccnc3cc(OC)c(OC)cc23)cc1C)c1ccccc1 (stereo not drawn) [Example 264, 1-Phenylpropyl N-{4-[(6,7-dimethoxy-4-quinolyl)oxy]-2,5-dimethylphenyl}carbamate]

IC50 ([1]; Pharmacological Test Example 1): 11 nM
IC50 ([2]; h-SCF 50 ng/ml): 821 nM
Structure (SMILES): COc1cc2nccc(Oc3ccc(NC(=O)OC(C)c4ccccc4F)cc3)c2cc1OC (stereo not drawn) [Example 122, 1-(2-Fluorophenyl)ethyl N-{4-[(6,7-dimethoxy-4-quinolyl)oxy]phenyl}carbamate]

IC50 ([1]; Pharmacological Test Example 1): < 10 nM
IC50 ([2]; h-SCF 50 ng/ml): 162 nM
Structure (SMILES): COc1cccc(OCCCOC(=O)Nc2ccc(Oc3ccnc4cc(OC)c(OC)cc34)c(C)c2C)c1 [Example 48, 3-(3-Methoxyphenoxy)propyl N-{4-[(6,7-dimethoxy-4-quinolyl)oxy]-2,3-dimethylphenyl}carbamate]

IC50 ([1]; Pharmacological Test Example 1): 26 nM
IC50 ([2]; h-SCF 50 ng/ml): 375 nM
Structure (SMILES): CCOc1ccccc1C(C)OC(=O)Nc1ccc(Oc2ccnc3cc(OC)c(OC)cc23)c(C)c1C (stereo not drawn) [Example 128, 1-(2-Ethoxyphenyl)ethyl N-{4-[(6,7-dimethoxy-4-quinolyl)oxy]-2,3-dimethylphenyl}carbamate]

IC50 ([1]; Pharmacological Test Example 1): 28 nM
IC50 ([2]; h-SCF 50 ng/ml): 79 nM
Structure (SMILES): COc1cc2nccc(Oc3ccc(NC(=O)OCCOc4ccccc4F)c(C)c3C)c2cc1OC [Example 204, 2-(2-Fluorophenoxy)ethyl N-{4-[(6,7-dimethoxy-4-quinolyl)oxy]-2,3-dimethylphenyl}carbamate]

IC50 ([1]; Pharmacological Test Example 1): 10 nM
IC50 ([2]; h-SCF 50 ng/ml): 46 nM
Structure (SMILES): COc1cc2nccc(Oc3ccc(NC(=O)OCc4ccc(C)cc4)c(C)c3C)c2cc1OC [Example 234, 4-Methylbenzyl N-{4-[(6,7-dimethoxy-4-quinolyl)oxy]-2,3-dimethylphenyl}carbamate]

IC50 [1]: 23 nM
inhibition at 1 µM ([2]; figure in parentheses in −( )): 36%
Structure (SMILES): COc1cc2nccc(Oc3ccc(NCCOc4c(OC)cccc4OC)cc3C)c2cc1OC [Example 882, N-[2-(2 6-Dimethoxyphenoxy)ethyl]-N-{4-[(6,7-dimethoxy-4-quinolyl)oxy]-3-methylphenyl}amine]

IC50 ([1]; Pharmacological Test Example 1): 34 nM
IC50 ([2]; h-SCF 50 ng/ml): 145 nM
Structure (SMILES): COc1cc2nccc(Oc3ccc(NC(=O)OCCSc4cc(C)ccc4C)c(C)c3C)c2cc1OC [Example 166, 2-[(2,5-Dimethylphenyl)sulfanyl]ethyl N-{4-[(6,7-dimethoxy-4-quinolyl)oxy]-2,3-dimethylphenyl}carbamate]

IC50 ([1]; Pharmacological Test Example 1): < 10 nM
IC50 ([2]; h-SCF 50 ng/ml): 480 nM
Structure (SMILES): COc1cccc(C(C)OC(=O)Nc2ccc(Oc3ccnc4cc(OC)c(OC)cc34)c(C)c2C)c1 (stereo not drawn) [Example 53, 1-(3-Methoxyphenyl)ethyl N-{4-[(6,7-dimethoxy-4-quinolyl)oxy]-2,3-dimethylphenyl}carbamate]
